Assay results reported in patent US20040234517A1, “Compositions and methods for diagnosing and treating asthma or other allergic or inflammatory diseases” (WYETH, priority 2003, published 2004).
Entries after “also recorded” stand apart in the source; their conditions may differ. Like-named read-outs stand apart in the source and are kept apart here.

Experiments:
rat liver arginase (RLA) = rat liver arginase (RLA) (Rattus norvegicus, UniProt P07824); settings: cited from earlier work; for IC50: read-out: IC50 towards RLA
liver arginase = biological target: T1, liver arginase (Bos taurus, UniProt Q2KJ64); settings: cited from earlier work; for activity toward arginase: concentrations up to 2 mM
T1 sequence (Q2KJ64 1-322): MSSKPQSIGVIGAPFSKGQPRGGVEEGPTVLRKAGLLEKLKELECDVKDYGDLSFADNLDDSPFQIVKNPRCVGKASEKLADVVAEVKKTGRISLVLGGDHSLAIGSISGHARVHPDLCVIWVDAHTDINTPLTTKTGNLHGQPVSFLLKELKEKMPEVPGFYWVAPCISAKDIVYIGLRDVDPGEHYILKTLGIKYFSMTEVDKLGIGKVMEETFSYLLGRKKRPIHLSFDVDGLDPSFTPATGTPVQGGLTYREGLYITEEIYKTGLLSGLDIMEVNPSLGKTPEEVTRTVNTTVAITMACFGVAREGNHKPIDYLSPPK

arginase [1] = settings: cited from earlier work
arginase [2] = biological target: T2, arginase (Homo sapiens, UniProt P05089); settings: cited from earlier work; for Ki: competitive inhibitors of arginase
T2 sequence (P05089 1-322): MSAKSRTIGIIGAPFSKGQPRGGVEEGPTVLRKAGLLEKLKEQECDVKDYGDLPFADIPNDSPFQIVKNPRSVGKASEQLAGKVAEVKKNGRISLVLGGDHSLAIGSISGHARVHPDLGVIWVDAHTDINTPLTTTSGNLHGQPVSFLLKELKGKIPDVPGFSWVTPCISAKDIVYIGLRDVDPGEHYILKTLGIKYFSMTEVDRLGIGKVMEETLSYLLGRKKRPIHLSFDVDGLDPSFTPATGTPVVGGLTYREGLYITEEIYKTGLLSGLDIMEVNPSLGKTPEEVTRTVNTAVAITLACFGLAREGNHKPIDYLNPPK

[3] = biological target: IL-13 (murine, endogenous in OVA-challenged Balb/c mice) (mouse) (UniProt P20109); assay: cell-based or functional assay
CAT2 = assay: arginine uptake in RAW264.7 cells treated with LPS and IL-13; type: cell-based, murine; settings: 20 mM lysine; Control and LPS/IL-13 treated RAW264.7 cells; 100 μM arginine, three minutes
Description: Briefly, RAW264.7 cells were exposed to media alone (Control) or CAT2-inducing conditions (LPS/IL-13) for 24 hours and were then evaluated for arginine transport over a three-minute period in a final arginine concentration of 100 μM.
RAW264.7 cells, at 1×10^6, were plated on 24-well tissue culture plates in 0.5 ml cDME. After adhering for 2 hours, 0.5 ml media containing LPS (Sigma) and/or rhIL13 (R&D Systems) was added for final concentrations of 1 μg/ml and 10 ng/ml, respectively. After 20 hours incubation at 37° C. in an atmosphere of 5% CO2 and 95% air, the cells were washed 3 times with Arg Wash Buffer #1 (140 mM choline chloride, 5 mM KCl, 0.9 mM CaCl2, 1 mM MgSO4, 5.6 mM glucose, and 25 mM HEPES, pH7.4), then an additional 4 times with Arg Transport Buffer (137 mM choline chloride, 5.4 mM KCl, 1.8 mM CaCl2, 1.2 mM MgSO4, 10 mM HEPES, adjusted to pH7.4). […] Non-saturable binding was quantitated by incubating a replicate well of each treatment with transport buffer containing […]. […] Protein quantitation was performed using a micro-BCA kit (Pierce) and 400 μl lysate suspended in 10 ml scintillation fluid, loaded into glass scintillation vials, and emissions counted for 1 minute. Specific Arginine Uptake was calculated as Saturable binding (CPM/mg protein 400 μM Arg)— Non-saturable binding (CPM/mg protein 5 mM Arg).

[4] = tested on: RAW264.7 murine macrophage cells; assay: urea production in RAW264.7 cells treated with LPS and IL-13; type: cell-based; settings: 20 mM lysine; LPS/IL-13 treated RAW264.7; 400 μM arginine, 24 hour incubation
Description: Briefly, RAW264.7 macrophages exposed to media alone (Control) or CAT2-inducing conditions (LPS/IL-13) for 24 hours were then equilibrated for 2 hours in Arginine Transport Buffer. After a 24 hour incubation in the presence or absence of competing L-lysine in Arginine Transport Buffer containing a final arginine concentration of 400 μM, urea production was evaluated as described in Example 4. Urea production is expressed as μg of urea in the supernatant/mg of cell lysate protein.
RAW264.7 macrophages were stimulated in 24-well plates as for arginine transport studies (above). After 20 hours of stimulation, the cells were washed three times with Arg Wash Buffer #1 and then an additional four times with Arg Transport Buffer. […] Supernatants were clarified by centrifugation at 12,000 rpm for 10 minutes and 100 μl assayed for urea in triplicate using a UV absorbance kit method (R-Biopharma) following the manufacturer's instructions with the exception that it was performed at 1/10 scale in a 96-well assay plate with a total volume of 300 μl/well. Cells were lysed with 500 μl of 1.0% SDS in 10 mM HEPES, pH 7.4 and the protein quantitated using the Micro-BCA kit (Pierce). Urea production was expressed as μg urea/mg protein lysate.

rat tracheal explants = assay: carbachol-induced tracheal contraction; settings: 100 mM lysine; preincubated 15 to 20 hours
Description: Briefly, rat tracheal explants were preincubated for 15 to 20 hours with either media or media containing 100 mM L-lysine. The trachea were then washed and contraction measured in a Krebs-Henseleit solution in the presence or absence of 100 mM L-lysine.
Rats between 8-10 weeks of age were used for this experiment. Trachea were rapidly excised and cleaned of adherent connective tissue. […] Composition (mM) of the medium included 0.1 nonessential amino acids, 4% FBS, 2.0 glutamine, 0.05β-mercaptoethanol, 100 U/ml penicillin/100 μg/ml streptomycin.
Trachea were supported longitudinally by a rod with a stainless steel pin into the base of a double-jacketed, glass organ bath filled with 15 ml of Krebs-Henseleit (K-H) solution (37° C.) of the following composition (mM): 118 NaCl; 4.7 KCl; 1.2 KH2PO4; 11.1 Dextrose; 1.2 MgSO4; 2.8 CaCl2; and 25 NaHCO3. The solution was continuously gassed with a 5% CO2 and 95% O2 mixture for the duration of each experiment. The upper support was attached by a loop of silk thread to a TSD125 force transducer. […]
At the end of each experiment, all trachea were blotted on a gauze pad and weighted. Tensions were calculated as milligram tensions per milligram weight (mg/mg) and expressed as an individual percentage (%) of 10^−5 M carbachol-evoked force of the trachea in the absence of the drugs. All values were expressed as Mean ± SE. […]

arginase [5] = settings: cited from earlier work; remark: listed apart in the source

rat liver arginase (RLA), sequence (P07824 whole entry): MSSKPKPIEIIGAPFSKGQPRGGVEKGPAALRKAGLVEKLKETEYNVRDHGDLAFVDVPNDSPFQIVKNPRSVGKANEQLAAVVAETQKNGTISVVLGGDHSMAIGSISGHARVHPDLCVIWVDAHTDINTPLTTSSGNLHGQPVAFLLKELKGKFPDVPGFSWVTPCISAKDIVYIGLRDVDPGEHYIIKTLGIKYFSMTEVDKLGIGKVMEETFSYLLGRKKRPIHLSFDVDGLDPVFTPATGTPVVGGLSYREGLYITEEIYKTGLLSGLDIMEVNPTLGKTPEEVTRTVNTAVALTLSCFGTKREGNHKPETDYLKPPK
IL-13 (murine, endogenous in OVA-challenged Balb/c mice) (mouse), sequence (P20109 19-131 limits assumed): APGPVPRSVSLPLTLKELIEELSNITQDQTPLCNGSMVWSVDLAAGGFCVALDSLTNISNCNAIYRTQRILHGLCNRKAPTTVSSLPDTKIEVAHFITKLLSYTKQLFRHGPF

Q: With `F` [F^−, fluoride] as the compound, how does the Ki (rat liver arginase (RLA); pH 7.4, uncompetitive towards L-Arg binding, reversible) read?
A: The Ki was 1300 µM.

Q: What about the IC50 (rat liver arginase (RLA); pH 7) of the same compound?
A: The IC50 was 1200 µM.

Q: And the IC50 (rat liver arginase (RLA); pH 10)?
A: The IC50 was 19000 µM.

Q: Which Ki (liver arginase; arginase) does the source give for `N=C(NO)NCCC[C@H](N)C(=O)O` [L-NOHA, N(omega)-Hydroxy-L-arginine] here?
A: The Ki was 150 µM.

Q: And the IC50 (arginase [1]; murine macrophages (Buga et al.), read-out: IC50 arginase activity)?
A: Its IC50 is 450 µM.

Q: And the IC50 (arginase [1]; read-out: IC50 hydrolysis of L-arginine to L-ornithine, unstimulated murine macrophages (Tenu et al.))?
A: The IC50 was 400 µM.

Q: With `NCCC[C@H](N)C(=O)O` [L-omithine, L-ornithine] as the compound, how does the Ki (arginase [2]) read?
A: The Ki was 2000 µM.

Q: For “soluble IL-13 receptor fusion protein sIL-13Rα2-Fc (from UniProt O88786 22-334) (Fc fusion)”, which inhibition of allergen-induced Arg1 mRNA expression in mouse lung (GeneChip, in vivo) [3] is on record?
A: Its inhibition of allergen-induced Arg1 mRNA expression in mouse lung (GeneChip, in vivo) is 67%.

Q: For `N=C(N)N` [guanidinium chloride], which Ki (arginase [2]) is on record?
A: The Ki was 100000 µM.

Q: Which “inhibition of arginase activity” value (arginase [2]) does the source give for `OB(O)O` [borate] here?
A: Its value is “S-hyperbolic I-hyperbolic non-competitive inhibitor”.

Q: Which activity toward arginase (liver arginase) does the source give for `NO` [hydroxylamine] here?
A: Its activity toward arginase is “inactive”.

Q: With `N=C(NO)NCCC[C@@H](N)C(=O)O` [D-NOHA] as the compound, how does the “effect on arginase relative to L-NOHA” value (liver arginase) read?
A: Its value is “much less active”.

Q: With `O=C(O)CC(O)(CC(=O)O)C(=O)O` [citrate] as the compound, how does the “inhibition of arginase activity” value (arginase [2]) read?
A: The value was “do not inhibit”.

Q: With `NC(=O)NO` [hydroxyurea] as the compound, how does the activity toward arginase (liver arginase) read?
A: The activity toward arginase was “inactive”.

Q: For `O=[N+]([O-])O` [NO3^−], which “effect on arginase relative to L-NOHA” value (liver arginase) is on record?
A: Its value is “without effect”.

Q: With `O=NO` [NO2^−] as the compound, how does the “effect on arginase relative to L-NOHA” value (liver arginase) read?
A: Its value is “without effect”.

Q: What does the source list for `NCCCC[C@H](N)C(=O)O` [lysine]?
A: arginine uptake / saturable arginine transport (CAT2): inhibited; also recorded: abolished all saturable arginine transport; urea production [4]: inhibited; carbachol-induced rat tracheal contraction (rat tracheal explants): inhibited

Q: Which “effect on arginase relative to L-NOHA” value (liver arginase) does the source give for `[N]=O` [NO, nitric oxide] here?
A: The value was “much weaker inhibitors”.

Q: For `NC(N)=O` [urea], which activity toward arginase (liver arginase) is on record?
A: Its activity toward arginase is “inactive”.

Q: Which “effect on arginase relative to L-NOHA” value (liver arginase) does the source give for `NC(=O)NCCC[C@H](N)C(=O)O` [L-Cit] here?
A: The value was “much weaker inhibitors”.

Q: And the activity toward arginase (liver arginase)?
A: Its activity toward arginase is “inactive”.

Q: With `NC(CCCCC(N)C(=O)O)=NO` (racemic) [N omega-hydroxy-D,L-indospicine] as the compound, how does the “inhibition of liver arginase and arginase in the alveolar macrophages” value (arginase [5]) read?
A: The value was “inhibit”.

Q: With `O=C(O)CN(CCN(CC(=O)O)CC(=O)O)CC(=O)O` [EDTA] as the compound, how does the “inhibition of arginase activity” value (arginase [2]) read?
A: Its value is “do not inhibit”.

Q: For `N=C(NO)c1ccc(CC(N)C(=O)O)cc1` (racemic) [4-hydroxyamidino-D,L-phenylalanine], which “inhibition of liver arginase and arginase in the alveolar macrophages” value (arginase [5]) is on record?
A: Its value is “inhibit”.
